{"source": "patent US9051317B2", "about": "“Azaindoles as respiratory syncytial virus antiviral agents” (JANSSEN SCIENCES IRELAND UC, priority 2010, dated 2015)", "key": {"rgRSV224 virus": {"system": "rgRSV224 virus", "assay": "microbe, parasite or virus in culture", "format": "cell-based, respiratory syncytial virus (RSV)", "conditions": "human respiratory syncytial virus, HeLa, 72 h, read-out: WT activity EC50", "method": "(§1) Black 96-well clear-bottom microtiter plates (Corning, Amsterdam, The Netherlands) were filled in duplicate using a customized robot system with serial 4-fold dilutions of compound in a final volume of 50 μl culture medium [RPMI medium without phenol red, 10% FBS, 0.04% gentamycin (50 mg/mL) and 0.5% DMSO]. Then, 100 μl of a HeLa cell suspension (5×10^4 cells/mL) in culture medium was added to each well followed by the addition of 50 μl rgRSV224 (MOI=0.02) virus in culture medium using a multidrop dispenser (Thermo Scientific, Erembodegem, Belgium). rgRSV224 virus is an engineered virus that includes an additional GFP gene (Hallak et al, 2000) and was in-licensed from the NIH (Bethesda, Md., USA). Medium, virus- and mock-infected controls were included in each test. Cells were incubated at 37° C. in a 5% CO2 atmosphere. Three days post-virus exposure, viral replication was quantified by measuring GFP expression in the cells by a MSM laser microscope (Tibotec, Beerse, Belgium). The EC50 was defined as the 50% inhibitory concentration for GFP expression. In parallel, compounds were incubated for three days in a set of white 96-well microtitier plates (Corning) and the cytotoxicity of compounds in HeLa cells was determined by measuring the ATP content of the cells using the ATPlite kit (PerkinElmer, Zaventem, Belgium) according to the manufacturer's instructions. The CC50 was defined as the 50% concentration for cytotoxicity."}, "[1]": {"assay": "Cytotoxicity in HeLa cells, ATP content (ATPlite kit)", "format": "cell-based", "conditions": "human, Table 1, three days incubation, read-out: Toxicity CC50", "method": "as §1"}}}
{"smiles": "O=c1n(Cc2cc3ncccc3n2CCCCO)c2cnccc2n1C1CC1", "note": "[Compound P5, 1-Cyclopropyl-3-{[1-(4-hydroxybutyl)-1H-pyrrolo[3,2-b]pyridin-2-yl]methyl}-1,3-dihydro-2H-imidazo[4,5-c]pyridin-2-one]", "values": [{"measurement": "EC50", "setting": "rgRSV224 virus", "result": 160, "unit": "nM"}, {"measurement": "CC50 at 3 days", "setting": "[1]", "result": "> 98400", "unit": "nM"}]}
